Experimental data published in ChEMBL document CHEMBL3860051, “Phosphorothioate analogs of P1,P3-di(nucleosid-5'-yl) triphosphates: Synthesis, assignment of the absolute configuration at P-atoms and P-stereodependent recognition by Fhit hydrolase” (Bioorg Med Chem, 2016).
Blank lines part the entries; values can stand above or below the compound they belong to.

Experiments:
[1] = Drug level treated with 1-O-[(guanosin-5'-yl)thiophosphyl]-2-S-[(guanosin-5'-yl)dithiophosphyl]-ethane assessed as snake venom phosphodiesterase-mediated compound formation at 50 uM after 15 mins by RP-HPLC analysis; type: ADME; conditions: serpentes, 0.25 h
[2] = Retention time of compound by RP-HPLC analysis; type: physicochemical
[3] = Stability of the compound assessed as snake venom phosphodiesterase-mediated initial rate of hydrolysis per microgram of protein at 50 uM after 10 mins by RP-HPLC analysis; type: ADME; conditions: serpentes
[4] = system: snake venom phosphodiesterase; test: Stability of the compound assessed as snake venom phosphodiesterase-mediated compound hydrolysis at 50 uM after 10 mins by RP-HPLC analysis; type: ADME; conditions: serpentes, read-out: Drug degradation
[5] = target: T1, Bis(5'-adenosyl)-triphosphatase (Homo sapiens, UniProt P49789); test: Stability of the compound assessed as human Fhit expressed in Escherichia coli BL21-mediated compound hydrolysis rate per microgram protein at 50 uM after 5 to 120 mins by RP-HPLC analysis; type: ADME
[6] = Stability of the compound assessed as snake venom phosphodiesterase-mediated initial rate of hydrolysis per microgram of protein at 200 uM after 1 hr by RP-HPLC analysis; type: ADME; conditions: serpentes
[7] = system: snake venom phosphodiesterase; test: Stability of the compound assessed as snake venom phosphodiesterase-mediated compound hydrolysis at 200 uM after 1 hr by RP-HPLC analysis; type: ADME; conditions: serpentes, read-out: Drug degradation
[8] = target: T1, Bis(5'-adenosyl)-triphosphatase; test: Stability of compound assessed as human Fhit expressed in Escherichia coli BL21-mediated compound initial rate of hydrolysis per microgram of protein at 50 to 200 uM after 5 to 120 mins by RP-HPLC analysis; type: ADME
[9] = system: snake venom phosphodiesterase; test: Stability of compound assessed as snake venom phosphodiesterase-mediated compound hydrolysis at 50 uM by RP-HPLC analysis; type: ADME; conditions: serpentes, read-out: Drug degradation
[10] = Drug level treated with (S,S)-P1,P3-di(adenosin-5'-yl)P1,P3- bis-thio-triphosphate assessed as snake venom phosphodiesterase-mediated compound formation at 50 uM after 2 hrs by RP-HPLC analysis; type: ADME; conditions: serpentes
[11] = Stability of the compound assessed as snake venom phosphodiesterase-mediated initial rate of hydrolysis per microgram of protein at 50 uM by RP-HPLC analysis; type: ADME; conditions: serpentes
[12] = Drug level treated with (R,S)-P1,P3-di(adenosin-5'-yl)P1,P3- bis-thio-triphosphate assessed as snake venom phosphodiesterase-mediated compound formation at 50 uM after 30 mins by RP-HPLC analysis; type: ADME; conditions: serpentes, 0.5 h
[13] = Stability of the compound assessed as snake venom phosphodiesterase-mediated initial rate of hydrolysis per microgram of protein at 50 uM after 2 hrs by RP-HPLC analysis; type: ADME; conditions: serpentes
[14] = system: snake venom phosphodiesterase; test: Stability of the compound assessed as snake venom phosphodiesterase-mediated compound hydrolysis at 50 uM after 2 hrs by RP-HPLC analysis; type: ADME; conditions: serpentes, read-out: Drug degradation
[15] = Drug level treated with (R,R)-P1,P3-di(adenosin-5'-yl)P1,P3-bis-thio-triphosphate assessed as snake venom phosphodiesterase-mediated compound formation at 50 uM after 10 mins by RP-HPLC analysis; type: ADME; conditions: serpentes
[16] = system: snake venom phosphodiesterase; test: Stability of the compound assessed as snake venom phosphodiesterase-mediated compound hydrolysis at 50 uM after 30 mins by RP-HPLC analysis; type: ADME; conditions: serpentes, read-out: Drug degradation
[17] = Stability of the compound assessed as snake venom phosphodiesterase-mediated initial rate of hydrolysis per microgram of protein at 50 uM after 30 mins by RP-HPLC analysis; type: ADME; conditions: serpentes, 0.5 h
[18] = system: snake venom phosphodiesterase; test: Stability of the compound assessed as snake venom phosphodiesterase-mediated compound hydrolysis at 50 uM after 1 hr by RP-HPLC analysis; type: ADME; conditions: serpentes, read-out: Drug degradation
[19] = Stability of the compound assessed as snake venom phosphodiesterase-mediated initial rate of hydrolysis per microgram of protein at 50 uM after 1 hr by RP-HPLC analysis; type: ADME; conditions: serpentes
[20] = system: snake venom phosphodiesterase; test: (§1) Stability of the compound assessed as snake venom phosphodiesterase-mediated compound hydrolysis at 50 uM after 15 mins by RP-HPLC analysis; type: ADME; conditions: serpentes, snake venom phosphodiesterase; read-out: Drug degradation
[21] = Stability of the compound assessed as snake venom phosphodiesterase-mediated initial rate of hydrolysis per microgram of protein at 50 uM after 15 mins by RP-HPLC analysis; type: ADME; conditions: serpentes, 0.25 h
[22] = as §1; type: ADME; conditions: serpentes, 0.25 h, 50 µM

T1 sequence (P49789 whole entry): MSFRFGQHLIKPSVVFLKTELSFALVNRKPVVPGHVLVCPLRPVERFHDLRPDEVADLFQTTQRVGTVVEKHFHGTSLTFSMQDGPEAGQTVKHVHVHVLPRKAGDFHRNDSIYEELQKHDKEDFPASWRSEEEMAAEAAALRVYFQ

Structure (SMILES): Nc1nc2c(ncn2[C@@H]2O[C@H](COP(O)(O)=S)[C@@H](O)[C@H]2O)c(=O)[nH]1
Drug metabolism [1]: Metabolite_Detected
Retention_time [2]: 11.1 min

Structure (SMILES): Nc1ncnc2c1ncn2[C@@H]1O[C@H](CO[P@@](=O)(S)OP(=O)(O)O[P@](=O)(S)OC[C@H]2O[C@@H](n3cnc4c(N)ncnc43)[C@H](O)[C@@H]2O)[C@@H](O)[C@H]1O
Drug degradation [3]: 0.1349 nmol/min
metabolised at 10 min, 50 µM [4]: 88%
Drug degradation [5]: 5.8 pmol/min

Structure (SMILES): NC(=O)c1ncn([C@@H]2O[C@H](CO[P@](=O)(S)OP(=O)(O)O[P@@](=O)(S)OC[C@H]3O[C@@H](n4cnc(C(N)=O)n4)[C@H](O)[C@@H]3O)[C@@H](O)[C@H]2O)n1
Drug degradation [6]: 0.0023 nmol/min
metabolised at 1 h, 200 µM [7]: 10%
Stability [8]: Stable

Structure (SMILES): NC(=O)c1ncn([C@@H]2O[C@H](CO[P@@](=O)(S)OP(=O)(O)O)[C@@H](O)[C@H]2O)n1
Retention_time [2]: 11.8 min

Structure (SMILES): Nc1ncnc2c1ncn2[C@@H]1O[C@H](CO[P@](=O)(S)OP(=O)(O)O)[C@@H](O)[C@H]1O
metabolised at 50 µM [9]: 10%
Drug metabolism [10]: Metabolite_Detected
Drug degradation [11]: 1.1 ×10⁻³ nmol/min
Retention_time [2]: 16.8 min
Drug metabolism [12]: Metabolite_Detected

Structure (SMILES): NC(=O)c1ncn([C@@H]2O[C@H](CO[P@](=O)(S)OP(=O)(O)O)[C@@H](O)[C@H]2O)n1
Retention_time [2]: 10.9 min

Structure (SMILES): Nc1ncnc2c1ncn2[C@@H]1O[C@H](CO[P@](=O)(S)OP(=O)(O)O[P@@](=O)(S)OC[C@H]2O[C@@H](n3cnc4c(N)ncnc43)[C@H](O)[C@@H]2O)[C@@H](O)[C@H]1O
Drug degradation [13]: 0.0012 nmol/min
metabolised at 2 h, 50 µM [14]: 52%
Drug degradation [5]: 5.7 pmol/min

Structure (SMILES): Nc1ncnc2c1ncn2[C@@H]1O[C@H](CO[P@@](=O)(S)OP(=O)(O)O)[C@@H](O)[C@H]1O
metabolised at 50 µM [9]: 10%
Drug metabolism [15]: Metabolite_Detected
Drug degradation [11]: 2.9 ×10⁻³ nmol/min
Retention_time [2]: 18.9 min

Structure (SMILES): Nc1ncnc2c1ncn2[C@@H]1O[C@H](CO[P@](=O)(S)OP(=O)(O)O[P@](=O)(S)OC[C@H]2O[C@@H](n3cnc4c(N)ncnc43)[C@H](O)[C@@H]2O)[C@@H](O)[C@H]1O
metabolised at 0.5 h, 50 µM [16]: 88%
Drug degradation [17]: 0.0368 nmol/min
Drug degradation [5]: 27.8 pmol/min

Structure (SMILES): Nc1nc2c(ncn2[C@@H]2O[C@H](CO[P@@](=O)(S)OP(=O)(O)O)[C@@H](O)[C@H]2O)c(=O)[nH]1
Retention_time [2]: 16.9 min

Structure (SMILES): NC(=O)c1ncn([C@@H]2O[C@H](CO[P@@](=O)(S)OP(=O)(O)O[P@](=O)(S)OC[C@H]3O[C@@H](n4cnc(C(N)=O)n4)[C@H](O)[C@@H]3O)[C@@H](O)[C@H]2O)n1
Drug degradation [6]: 0.0538 nmol/min
metabolised at 1 h, 200 µM [7]: 80%
Stability [8]: Stable

Structure (SMILES): Nc1nc2c(ncn2[C@@H]2O[C@H](CO[P@@](=O)(S)OP(=O)(O)O[P@](=O)(S)OC[C@H]3O[C@@H](n4cnc5c(=O)[nH]c(N)nc54)[C@H](O)[C@@H]3O)[C@@H](O)[C@H]2O)c(=O)[nH]1
metabolised at 1 h, 50 µM [18]: 95%
Drug degradation [19]: 0.1212 nmol/min
Drug degradation [5]: 0.7 pmol/min

Structure (SMILES): Nc1nc2c(ncn2[C@@H]2O[C@H](CO[P@](=O)(S)OP(=O)(O)O)[C@@H](O)[C@H]2O)c(=O)[nH]1
Retention_time [2]: 14.9 min

Structure (SMILES): NC(=O)c1ncn([C@@H]2O[C@H](COP(=O)(O)S)[C@@H](O)[C@H]2O)n1 (some centres undefined)
Retention_time [2]: 10.6 min

Structure (SMILES): NC(=O)c1ncn([C@@H]2O[C@H](CO[P@](=O)(S)OP(=O)(O)O[P@](=O)(S)OC[C@H]3O[C@@H](n4cnc(C(N)=O)n4)[C@H](O)[C@@H]3O)[C@@H](O)[C@H]2O)n1
Drug degradation [6]: 0.0253 nmol/min
metabolised at 1 h, 200 µM [7]: 41%
Stability [8]: Stable

Drug degradation [5]: 9810 pmol/min
Structure (SMILES): Nc1ncnc2c1ncn2[C@@H]1O[C@H](COP(=O)(O)OP(=O)(O)OP(=O)(O)OC[C@H]2O[C@@H](n3cnc4c(N)ncnc43)[C@H](O)[C@@H]2O)[C@@H](O)[C@H]1O

Structure (SMILES): Nc1ncnc2c1ncn2[C@@H]1O[C@H](COP(O)(O)=S)[C@@H](O)[C@H]1O
Retention_time [2]: 13.8 min

Structure (SMILES): Nc1nc2c(ncn2[C@@H]2O[C@H](COP(=O)(S)OP(=O)(O)OP(=O)(S)OC[C@H]3O[C@@H](n4cnc5c(=O)[nH]c(N)nc54)[C@H](O)[C@@H]3O)[C@@H](O)[C@H]2O)c(=O)[nH]1 (mixture of isomers)
metabolised at 1 h, 50 µM [18]: 50%
Drug degradation [19]: 0.0275 nmol/min
Drug degradation [5]: 5.9 pmol/min

Structure (SMILES): Nc1nc2c(ncn2[C@@H]2O[C@H](COP(=O)(S)OCCSP(=O)(S)OC[C@H]3O[C@@H](n4cnc5c(=O)[nH]c(N)nc54)[C@H](O)[C@@H]3O)[C@@H](O)[C@H]2O)c(=O)[nH]1 (stereo in doubt; 9A)
metabolised at 0.25 h, 50 µM [20]: 70%
Drug degradation [5]: 3.9 pmol/min
Drug degradation [21]: 0.6944 nmol/min

Structure (SMILES): Nc1nc2c(ncn2[C@@H]2O[C@H](COP(=O)(S)OCCSP(=O)(S)OC[C@H]3O[C@@H](n4cnc5c(=O)[nH]c(N)nc54)[C@H](O)[C@@H]3O)[C@@H](O)[C@H]2O)c(=O)[nH]1 (stereo in doubt; 9B)
Drug degradation [22]: 56%
Drug degradation [5]: 2 pmol/min
Drug degradation [21]: 0.5539 nmol/min

Structure (SMILES): Nc1ncnc2c1ncn2[C@@H]1O[C@H](COP(=O)(O)OP(=O)(O)O)[C@@H](O)[C@H]1O [ADENOSINE DIPHOSPHATE]
Stability [11]: Stable
